Results on seven substances are retold here after patent publication US5530097A, “Human cancer inhibitory peptide amides” (Arizona Board of Regents acting on behalf of Arizona State …, priority 1994, dated 1996).

Common to all, as to format: cell-based
The subject of one assay is OVCAR-3. Nature of the assay: NCI in vitro mini panel, human cancer cell line growth inhibition. To be noted: Ovarian OVCAR-3, 48 hrs. The protocol:
(§1) ED50 (P388) and GI50 (HTCL) identify the drug dose which reduces the percent tumor/cell growth to 50%. There is no mathematical difference between ED50 and GI50, both of which are calculated using the same formula. The only difference is historical usage.
(§2) TGI, means "Total Growth Inhibition", and identifies the drug dose needed to yield zero percent growth, i.e. there are just as many cells at the end of the experiment as were present at the beginning. Whether just as many cells were killed as were produced (steady state), or no growth occurred (total inhibition) cannot be distinguished.
(§3) LC50, means "Lethal Concentration 50%", and identifies the drug concentration which reduces to one-half of the cells originally present at the beginning of the experiment.
(§4) Each drug is tested at five (5) doses: 100--10-1-0.1--0.01 μg/mL. Percent Growths are calculated for each dose. The two (or three) doses with growth values above, below, (or near to) 50% growth are used to calculate the ED50 /GI50 values using a linear regression computation. If no dose yields a growth value under 50%, the results are expressed as: ED50 >(highest dose). If no dose yields growth higher than 50% growth, then ED50 <(lowest dose). Similar calculations are performed for the TGI at 0% growth, and at -50% growth for the LC50.
(§5) At the start of each experiment, cells from the in vitro cell cultures are inoculated into the appropriate tubes or microtiter plates. One set of control tubes/plates is immediately counted to determine the number of cells at the start of the experiment. This is the "baseline count", or "Tzero reading". At the end of the experiment (48 hrs later), a second set of control tubes/plates is analyzed to determine the "Control Growth" value. The growth (or death) of cells relative to the initial quantity of cells is used to define the "Percent of Growth."
(§6) Similarly, the compounds disclosed herein have also been tested against an NCI in vitro mini panel. For each of six cell lines GI50, TGI, and LC50 amounts were calculated for each compound. Each compound was also tested against the PS-388 cell line and for this test an ED50 was calculated.
(§7) The protocols followed, for the NCI minipanel are, except for the number of cell lines, those established by M. R. Boyd Ph.D., and well known to those of ordinary skill in the art. The procedure followed for the test against PS-388 Leukemia is the same that was followed in the superseded NCI P-388 screening test, which is also well known to those having ordinary skill in the art.

Another assay deals with KM20L2. Described as above. As to conditions: Colon KM20L2, 48 hrs. On the procedure: as §1, §2, §3, §4, §5, §6, §7
In the next assay the test system is SK-MEL-5. The assay is described as above. To be noted: Melanoma SK-MEL-5, 48 hrs. The protocol:
as §1, §2, §3, §4, §5, §6, §7

In the next assay the test system is SF-295. The assay is described as above. To be noted: CNS SF-295, 48 hrs. On the procedure: as §1, §2, §3, §4, §5, §6, §7
For a further assay, the system named is A498. The description is as above. As to conditions: Renal A498, 48 hrs. The protocol: as §1, §2, §3, §4, §5, §6, §7
A further assay relates to NCI-H460. Described as above. To be noted: Lung-NSC NCI-H460, 48 hrs. On the procedure: as §1, §2, §3, §4, §5, §6, §7
The subject of a further assay is PS-388. Nature of the assay: PS-388 mouse leukemia cell line test. To be noted: Mouse Leukemia PS-388. The protocol:
as §1, §4, §5, §6, §7

By TGI is commonly meant the concentration giving total growth inhibition. Read a high TGI as less potent growth arrest. Regarding “L-Dolavalyl-L-Leucyl-N-methyl-(3R,4S,5S)-Dolaisoleuinyl-(2R,3R,4S)-Dolaproinyl-Dolaphenine [10a]”, the GI-50 worked out at 0.000031 µg/mL in the assay on OVCAR-3; 0.000034 µg/mL in the assay on KM20L2; 0.000058 µg/mL in the assay on SK-MEL-5; 0.00027 µg/mL in the assay on SF-295; 0.00026 µg/mL in the assay with A498; 0.00022 µg/mL in the assay with NCI-H460. Also, the LC-50 with OVCAR-3, in the assay on KM20L2, in the assay with SK-MEL-5, in the assay on SF-295, with A498 and in the assay on NCI-H460 was greater than 0.01 µg/mL in each case. Besides, the TGI was 0.00051 µg/mL in the assay on OVCAR-3; 0.001 µg/mL in the assay with KM20L2; greater than 0.01 µg/mL in the assay on SK-MEL-5; greater than 0.01 µg/mL in the assay with SF-295; 0.0063 µg/mL in the assay with A498; 0.0007 µg/mL with NCI-H460. In the assay on PS-388, this substance registered an ED-50 of 0.0000312 µg/mL.
With “L-Dolavalyl-L-Leucyl-N-methyl-(3R,4S,5S)-Dolaisoleuinyl-(2R,3R,4S)-Dolaproinyl-L-Methionine N-2-benzothiazolamide [8e]”, the GI-50 in the assay on OVCAR-3 was 0.00008 µg/mL; with KM20L2 it was 0.00034 µg/mL; with SK-MEL-5, 0.000051 µg/mL; in the assay with SF-295, 0.0036 µg/mL; in the assay with A498, 0.00087 µg/mL; with NCI-H460, 0.0032 µg/mL. Moreover, the LC-50 with OVCAR-3, in the assay on KM20L2, with SK-MEL-5, in the assay with SF-295, in the assay with A498 and with NCI-H460 was greater than 0.01 µg/mL throughout. For the same substance, the TGI with OVCAR-3 is 0.0029 µg/mL; in the assay with KM20L2, greater than 0.01 µg/mL; in the assay with SK-MEL-5, greater than 0.01 µg/mL; in the assay on SF-295, greater than 0.01 µg/mL; in the assay on A498 it was greater than 0.01 µg/mL; in the assay with NCI-H460 it was greater than 0.01 µg/mL. Also, the ED-50 with PS-388 turned out to be 0.000839 µg/mL.
Turning to “L-Dolavalyl-L-Leucyl-N-methyl-(3R,4S,5S)-Dolaisoleuinyl-(2R,3R,4S)-Dolaproinyl-L-Methionine N-2-chlorophenylamide [8a]”, the GI-50 in the assay with OVCAR-3 is 0.00047 µg/mL; in the assay on KM20L2 it was 0.0018 µg/mL; with SK-MEL-5, 0.042 µg/mL; in the assay on SF-295, 0.0034 µg/mL; in the assay with A498, 0.0037 µg/mL; in the assay with NCI-H460, 0.0028 µg/mL. Moreover, the LC-50 with OVCAR-3, in the assay with KM20L2, in the assay with SK-MEL-5, with SF-295, with A498 and in the assay on NCI-H460 was greater than 0.01 µg/mL in each case. The TGI with OVCAR-3 was 0.005 µg/mL; in the assay on KM20L2, greater than 0.01 µg/mL; with SK-MEL-5 it was greater than 0.01 µg/mL; in the assay with SF-295, greater than 0.01 µg/mL; in the assay with A498, greater than 0.01 µg/mL; in the assay on NCI-H460 it was 0.0079 µg/mL. Also, the ED-50 with PS-388 was found to be 0.00256 µg/mL.
Take “L-Dolavalyl-L-Leucyl-N-methyl-(3R,4S,5S)-Dolaisoleuinyl-(2R,3R,4S)-Dolaproinyl-L-Methionine N-3-quinolinamide [8g]”: the GI-50 was less than 0.000006 µg/mL in the assay with OVCAR-3; 0.000019 µg/mL with KM20L2; less than 0.000006 µg/mL in the assay on SK-MEL-5; 0.00041 µg/mL in the assay on SF-295; 0.00026 µg/mL with A498; 0.00032 µg/mL in the assay on NCI-H460. Moreover, the LC-50 in the assay on OVCAR-3, in the assay with KM20L2, in the assay on SK-MEL-5, with SF-295, in the assay with A498 and in the assay on NCI-H460 was greater than 0.01 µg/mL throughout. Besides, the TGI in the assay with OVCAR-3 was 0.001 µg/mL; with KM20L2, 0.0012 µg/mL; in the assay on SK-MEL-5 it was greater than 0.01 µg/mL; in the assay with SF-295 it was greater than 0.01 µg/mL; with A498 it was greater than 0.01 µg/mL; in the assay on NCI-H460, 0.0012 µg/mL. Moreover, the ED-50 in the assay on PS-388 was found to be 0.000271 µg/mL.
With “L-Dolavalyl-L-Leucyl-N-methyl-(3R,4S,5S)-Dolaisoleuinyl-(2R,3R,4S)-Dolaproinyl-L-Methionine N-4-chlorophenylamide [8b]”, the GI-50 with OVCAR-3 came to 0.000031 µg/mL; with KM20L2 it was 0.00028 µg/mL; in the assay on SK-MEL-5, 0.000018 µg/mL; in the assay with SF-295, 0.0029 µg/mL; in the assay on A498, 0.00045 µg/mL; in the assay with NCI-H460, 0.003 µg/mL. The LC-50 in the assay with OVCAR-3, in the assay with KM20L2, with SK-MEL-5, in the assay on SF-295, with A498 and in the assay on NCI-H460 was greater than 0.01 µg/mL each time. Further, the TGI in the assay with OVCAR-3 was 0.0016 µg/mL; in the assay with KM20L2, greater than 0.01 µg/mL; with SK-MEL-5 it was greater than 0.01 µg/mL; with SF-295 it was greater than 0.01 µg/mL; in the assay on A498, greater than 0.01 µg/mL; with NCI-H460 it was 0.009 µg/mL. The same substance registered an ED-50 with PS-388 of 0.000434 µg/mL.
With “L-Dolavalyl-L-Leucyl-N-methyl-(3R,4S,5S)-Dolaisoleuinyl-(2R,3R,4S)-Dolaproinyl-L-Phenylalanine N-3-chlorophenylamide [8c]”, the GI-50 in the assay with OVCAR-3 stood at 0.000064 µg/mL; with KM20L2 it was 0.00021 µg/mL; in the assay on SK-MEL-5, 0.000042 µg/mL; with SF-295, 0.00088 µg/mL; in the assay on A498 it was 0.00042 µg/mL; in the assay with NCI-H460, 0.0017 µg/mL. The LC-50 with OVCAR-3, in the assay with KM20L2, in the assay with SK-MEL-5, with SF-295, with A498 and in the assay on NCI-H460 was greater than 0.01 µg/mL each time. Moreover, the TGI with OVCAR-3 is 0.0011 µg/mL; with KM20L2, 0.0012 µg/mL; in the assay on SK-MEL-5, 0.00074 µg/mL; in the assay with SF-295, greater than 0.01 µg/mL; in the assay on A498, greater than 0.01 µg/mL; in the assay with NCI-H460, 0.0054 µg/mL. This substance also returned an ED-50 in the assay with PS-388 of 0.0000371 µg/mL.
As for “L-Dolavalyl-L-Leucyl-N-methyl-(3R,4S,5S)-Dolaisoleuinyl-(2R,3R,4S)-Dolaproinyl-L-Phenylalanine N-4-chlorophenylamide [8d]”, the GI-50 turned out to be 0.0000085 µg/mL in the assay on OVCAR-3; 0.000015 µg/mL in the assay with KM20L2; 0.0000051 µg/mL in the assay on SK-MEL-5; 0.00034 µg/mL in the assay on SF-295; 0.00018 µg/mL with A498; 0.00032 µg/mL in the assay with NCI-H460. In addition, the LC-50 in the assay with OVCAR-3, in the assay on KM20L2, in the assay with SK-MEL-5, in the assay with SF-295, in the assay on A498 and with NCI-H460 was greater than 0.01 µg/mL each time. Also, the TGI with OVCAR-3 is 0.00023 µg/mL; in the assay on KM20L2, 0.0012 µg/mL; with SK-MEL-5, greater than 0.01 µg/mL; in the assay on SF-295, greater than 0.01 µg/mL; with A498, 0.0038 µg/mL; in the assay on NCI-H460, 0.0011 µg/mL. Further, the ED-50 in the assay on PS-388 came to 0.0000025 µg/mL.
